In PubChem BioAssay (NCI) one finds GI50 and TGI data, which are given here for 18 compounds.

Common to all, as to assay: inhibition of tumour cell growth, NCI panel, 48 h
The test system of test [1] is A549 NSCLC.
In test [2] the test system is EKVX NSCLC.
Test [3] concerns MDA-MB-231 breast.
For test [4], the system named is OVCAR-3 ovarian.
For test [5], the system named is PC-3 prostate.
The subject of test [6] is RPMI-8226 leukemia.
The subject of test [7] is SF-539 CNS.
Test [8] has as its system SN12C renal.
Test [9] relates to TK-10 renal.
Test [10] concerns U251 CNS.

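Step 1: Grow cells in 96-well plates. Step 2: Expose to compound for 48 hours at 5 concentrations. Step 3: Interpolate endpoints linearly; if unreached, use highest concentration. Here, GI50 denotes the concentration required for 50% inhibition of growth. The concentration for full growth arrest is given as TGI.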

With `CN(C)c1ccc(/C=N/S(=O)(=O)c2ccc(-n3c(-c4ccccc4)nc4c(Br)cc(Br)cc4c3=O)cc2)cc1`, the GI50 in test [1] was 34 µM; in test [2], 27.6 µM; in test [3], 44 µM; in test [4] it was 34.2 µM; in [5] it was 35.3 µM; in test [6], 4.27 µM. Further, the GI50 is 44.4 µM in [7], 43.4 µM in test [8], 45.8 µM in test [9] and 40.7 µM in [10]. For the same compound, the TGI in test [1] was over 100 µM; in test [2] it was 91.6 µM; in test [3] it was over 100 µM; in test [4], over 100 µM; in [5], over 88 µM; in test [6], over 96.4 µM. The TGI in test [7] is over 91.8 µM; in test [8] it was over 100 µM; in test [9], over 100 µM; in [10], over 100 µM.
Consider `CN(C)c1cccc(F)c1C(=O)NC(=O)Nc1ccc(Cl)cc1`, for which the TGI in test [1] was over 100 µM; in [2] it was over 100 µM; in test [3] it was over 72.1 µM; in test [4], over 100 µM; in test [5], over 100 µM; in test [6] it was over 36.6 µM. The TGI in [7], in test [8], in test [9] and in test [10] was over 100 µM each time.
Take `CN(CCCCCl)P(=O)(OCc1ccc([N+](=O)[O-])o1)OCC1OC(n2cnc([N+](=O)[O-])c2N)C(O)C1O` (stereo not given): the GI50 in test [1], in test [2], in test [3], in test [4], in test [5] and in test [6] was over 100 µM in each case. Besides, the GI50 in test [7], in test [8], in [9] and in [10] was over 100 µM each time. Further, the TGI in test [1], in [2], in test [3], in test [4], in [5] and in [6] was over 100 µM in each case. Moreover, the TGI in test [7], in [8], in test [9] and in test [10] was over 100 µM each time.
`O=C(O)c1c(Br)c(Br)c(Br)c(Br)c1C1c2ccc(O)cc2Oc2cc(O)ccc21`: the TGI in [1], in test [2], in test [3], in test [4], in [5] and in test [6] was over 100 µM each time. In addition, the TGI in [7], in test [8], in test [9] and in test [10] was over 100 µM throughout.
With `NC1(Cc2ccc(Cl)cc2)CCN(c2ncnc3[nH]ccc23)CC1`, the GI50 is 5.02 µM in test [1]; 2.69 µM in [2]; 6.9 µM in test [3]; 11.7 µM in test [4]; 2.99 µM in [5]; 4.37 µM in test [6]. For the same compound, the GI50 was 2.21 µM in [7], 4.4 µM in test [8], 3.17 µM in test [9] and 3.73 µM in test [10]. Also, the TGI in test [1] is 21.6 µM; in test [2], 18.5 µM; in [3] it was 26.9 µM; in test [4] it was 25 µM; in test [5], 23.5 µM; in test [6], 26.5 µM. Moreover, the TGI in test [7] is 12.6 µM; in [8], 28.8 µM; in [9] it was 14.8 µM; in test [10] it was 17.5 µM.
As for `COc1ccc(-c2c3c(nc4n[nH]c(-c5ccc(Cl)cc5)c24)-c2ccccc2C(=O)C3=O)cc1`, the GI50 in test [1] was 1.83 µM; in [2], 1.64 µM; in [3], 1.6 µM; in test [4], 1.28 µM; in [5], 1.22 µM; in test [6] it was 1.72 µM. Further, the GI50 is 1.7 µM in test [7], 1.66 µM in [8], 1.8 µM in [9] and 1.46 µM in test [10]. For the same compound, the TGI turned out to be 3.54 µM in test [1]; 4.43 µM in test [2]; 5.3 µM in test [3]; 4.33 µM in [4]; 3.71 µM in test [5]; 7.15 µM in test [6]. The TGI was found to be 3.47 µM in test [7], 3.82 µM in test [8], 3.32 µM in test [9] and 2.81 µM in test [10].
Regarding `Cc1ccc(C2NC(=O)c3ccccc3N2)c(C)c1` (stereo not given), the TGI in test [1] is over 100 µM; in test [2] it was over 100 µM; in [3], over 100 µM; in test [4] it was 4.68 µM; in [5], over 40.2 µM; in [6] it was 12 µM. In addition, the TGI is 5.15 µM in test [7], over 86.5 µM in test [8], over 100 µM in [9] and over 39.5 µM in test [10].
Consider `O=[N+]([O-])c1cc([N+](=O)[O-])c(Cl)cc1Cl`, for which the GI50 in test [1] is 1.64 µM; in [2] it was 1.68 µM; in test [3], 1.94 µM; in test [4], 1.42 µM; in [5], 1.35 µM; in test [6] it was 0.667 µM. Besides, the GI50 was 1.73 µM in [7], 1.76 µM in test [8], 1.65 µM in test [9] and 0.211 µM in [10]. The TGI in test [1] worked out at 3.27 µM; in test [2], 3.31 µM; in test [3] it was 3.7 µM; in [4], 2.73 µM; in [5], 2.88 µM; in test [6] it was 2.8 µM. In addition, the TGI came out at 3.49 µM in test [7], 3.55 µM in test [8], 3.16 µM in test [9] and 0.476 µM in test [10].
With `CC(=O)OC1=CC2(OC(C)=O)CC(C)(C)C1C1C(=O)C=CC(=O)C12` (stereo not given), the TGI in test [1], in [2], in test [3], in test [4], in test [5] and in test [6] was over 100 µM each time. Besides, the TGI is over 71 µM in test [7], over 80.5 µM in [8], over 100 µM in test [9] and over 100 µM in [10].
Take `CC1=Nc2c([nH]c(=S)[nH]c2=O)NC(c2c(Cl)cccc2Cl)C1` (stereo not given): the TGI in test [1] came out at 15 µM; in [2] it was 18.7 µM; in test [3] it was 1.87 µM; in test [4], 4.16 µM; in test [5] it was 2.6 µM; in test [6] it was 4.04 µM. For the same compound, the TGI in [7] amounted to 4.2 µM; in test [8] it was 3.09 µM; in test [9] it was 18 µM; in [10], 2.32 µM.
On to `COc1cc2oc3c(c(=O)c2c(O)c1/C=C/C(C)C)C(C=C(C)C)Oc1cc(O)ccc1-3` (stereo not given), for which the TGI worked out at 28.8 µM in [1]; 30.3 µM in [2]; 33.2 µM in test [3]; 28.4 µM in [4]; 29.4 µM in test [5]; 33.9 µM in [6]. The TGI in test [7] came out at 31.8 µM; in test [8], 30.4 µM; in test [9], 31.5 µM; in [10], 31.1 µM.
For the compound `Cc1[nH]c2cc(F)ccc2c1-c1nc2c3cccnc3c3ncccc3c2[nH]1`, the GI50 in test [1] is 0.381 µM; in test [2], 0.32 µM; in test [3], 0.409 µM; in [4], 0.209 µM; in [5], 0.183 µM; in test [6] it was 0.771 µM. In addition, the GI50 in test [7] is 0.287 µM; in test [8], 0.399 µM; in test [9], 0.396 µM; in test [10], 0.121 µM. For the same compound, the TGI was 2.35 µM in test [1]; 2.69 µM in [2]; 2.4 µM in [3]; 1.56 µM in [4]; 2.93 µM in [5]; 2.91 µM in test [6]. The TGI is 1.29 µM in test [7], 3.38 µM in test [8], 2.34 µM in test [9] and 1.22 µM in test [10].
Consider `CN1CCN(c2nc(-c3csc(-c4cccs4)n3)cc3ccccc23)CC1`, for which the GI50 was 1.76 µM in [1]; 1.58 µM in test [2]; 1.53 µM in test [3]; 1.84 µM in test [4]; 1.98 µM in test [5]; 2.09 µM in [6]. Besides, the GI50 in [7] was 1.64 µM; in test [8], 1.81 µM; in [9], 1.98 µM; in test [10], 1.66 µM. The TGI is 3.55 µM in [1]; 3.34 µM in [2]; 3.13 µM in test [3]; 3.64 µM in test [4]; 4.48 µM in [5]; 4.98 µM in test [6]. The TGI was determined as 3.04 µM in [7], 3.47 µM in [8], 3.65 µM in test [9] and 3.29 µM in [10].
`CCC(C)C(=O)OCC(=O)c1ccc(-c2ccccc2)cc1` (stereo not given): the TGI in test [1] was over 100 µM; in test [2], 84.4 µM; in test [3], over 100 µM; in [4], over 100 µM; in test [5], over 100 µM; in test [6], 71.5 µM. The TGI in test [7], in [8], in [9] and in [10] was over 100 µM throughout.
Turning to `CC(C)(C)N/N=C(\C(=O)NC1=C(Cl)C(=O)c2ccccc2C1=O)C1C=CCS1(=O)=O` (stereo not given), the TGI in test [1] is 38.5 µM; in test [2] it was 30.2 µM; in [3] it was 32.4 µM; in [4], 9.38 µM; in [5] it was 62.2 µM; in [6] it was over 100 µM. Moreover, the TGI in test [7] is 54.2 µM; in test [8], 31.6 µM; in [9], over 100 µM; in [10], over 100 µM.
Turning to `NC(=O)c1sc(-n2cnc3cc(C(F)(F)F)ccc32)cc1OCc1ccccc1Br`, the GI50 is over 25 µM in test [1]; over 25 µM in test [2]; over 17.6 µM in test [3]; over 16.7 µM in test [4]; over 20.4 µM in [5]; over 23.6 µM in test [6]. Moreover, the GI50 in test [7] is 24.9 µM; in test [8] it was 24.6 µM; in test [9] it was over 25 µM; in test [10], over 15.8 µM. Also, the TGI in test [1], in test [2], in test [3], in test [4], in test [5] and in [6] was over 25 µM throughout. For the same compound, the TGI in test [7], in test [8], in test [9] and in test [10] was over 25 µM in each case.
With `NC(CSSCC(N)C(=O)O)C(=O)O` (stereo not given), the GI50 in test [1], in test [2], in test [3], in [4], in test [5] and in test [6] was over 100 µM in each case. The GI50 in test [7], in [8], in test [9] and in test [10] was over 100 µM each time. The TGI in test [1], in [2], in [3], in [4], in test [5] and in test [6] was over 100 µM throughout. In addition, the TGI in [7], in test [8], in test [9] and in test [10] was over 100 µM in each case.
Take `CC1SC2(CCCCC2)N(NC(=O)c2[nH]c3ccc(Br)cc3c2-c2ccccc2)C1=O` (stereo not given): the GI50 in [1] is 15.7 µM; in test [2] it was over 100 µM; in test [3], 20.4 µM; in test [4], 3.24 µM; in test [5], 7.45 µM; in test [6], 3.83 µM. Further, the GI50 was over 100 µM in test [7], 4.66 µM in test [8], 26.2 µM in test [9] and 41.3 µM in test [10]. Besides, the TGI is over 100 µM in [1]; over 100 µM in test [2]; 79.6 µM in [3]; 20.9 µM in test [4]; 89.2 µM in test [5]; 30.2 µM in test [6]. Moreover, the TGI was over 100 µM in test [7], 30.6 µM in [8], over 100 µM in test [9] and over 100 µM in [10].
